From patent US11957684B2, “Treatment of heavy menstrual bleeding associated with uterine fibroids” (Sumitomo Pharma Switzerland GmbH, priority 2016, dated 2024)
Read-outs that look alike come from different tables or passages of the source.

System: endometriosis-associated pain
Type: in vivo, human
Conditions: 3.75 mg sc/4 wk
Experimental: Subjects assessed and recorded their own quality of life (QOL) using the EHP-30 once a month during the study visit. As used in the examples, the VAS score was evaluated using a 100 mm scale. For pain intensity, the scale was anchored by “no pain” (score of 0) and “pain as bad as you can imagine” (score of 100). […] The above items were evaluated using a patient diary that was distributed by the sponsor. Subjects filled out the patient diary every day during the treatment period or until early termination. If taking prohibited analgesics, subjects recorded this fact in the patient diary along with the accompanying pain symptoms before use of analgesics. As used in the examples, pain during menstruation and pelvic pain unrelated to menstruation were evaluated using scores on the M-B&B and B&B. The M-B&B scores were recorded by subjects on the patient diary supplied by the sponsor. Subjects filled out the patient diary every day during the treatment period or until early termination. If taking prohibited analgesics, subjects recorded this fact in the patient diary along with the accompanying pain symptoms before use of analgesics. The investigator or subinvestigator assessed each patient's pain through interviews and filled out a B&B once a month. The items that were assessed are shown below. The M-B&B score included: dysmenorrhea (severe, moderate, mild, no pain, or no menstruation); pelvic pain (severe, moderate, mild, or no pain); deep dyspareunia (severe, moderate, mild, no pain, or no intercourse). The B&B score included: dysmenorrhea (severe, moderate, mild, none, or not applicable); dyspareunia (severe, moderate, mild, none, or not applicable); pelvic pain (severe, moderate, mild, or none); pelvic tenderness (severe, moderate, mild, or none); and induration (severe, moderate, mild, or none). As used in the examples, the EHP-30 score was obtained by subjects assessing and recording their own QOL using the EHP-30 questionnaire.

[1] = end of treatment, listed as leuprorelin

`CCNC(=O)[C@@H]1CCCN1C(=O)[C@H](CCCNC(=N)N)NC(=O)[C@H](CC(C)C)NC(=O)[C@@H](CC(C)C)NC(=O)[C@H](Cc1ccc(O)cc1)NC(=O)[C@H](CO)NC(=O)[C@H](Cc1c[nH]c2ccccc12)NC(=O)[C@H](Cc1c[nH]cn1)NC(=O)[C@@H]1CCC(=O)N1` [leuprolide acetate, reference compound] was tested, and the “change from baseline in mean VAS, dysmenorrhea” value (Day 1-28) was −9.985±15.7027 mm, the “change from baseline in mean VAS, dyspareunia” value (Day 1-28) was −3.126±17.0520 mm and the “change from baseline in mean VAS, pelvic pain” value (Day 1-28) was −4.282±7.3628 mm. For the same compound, the “mean VAS score, dysmenorrhea” value (Day 1-28) was 17.133±19.4179 mm, the “mean VAS score, dyspareunia” value (Day 1-28) was 7.288±16.2960 mm and the “mean VAS score, pelvic pain” value (Day 1-28) was 10.899±14.8866 mm. The “change from baseline in mean VAS, dysmenorrhea” value (Day 57-84) was −27.558±19.9878 mm, the “change from baseline in mean VAS, dyspareunia” value (Day 57-84) was −6.752±10.5824 mm and the “change from baseline in mean VAS, pelvic pain” value (Day 57-84) was −10.364±10.4428 mm. The “mean VAS score, dysmenorrhea” value (Day 57-84) was 0.000±0.0000 mm, the “mean VAS score, dyspareunia” value (Day 57-84) was 5.478±10.7612 mm and the “mean VAS score, pelvic pain” value (Day 57-84) was 5.013±12.0454 mm. The “change from baseline in mean VAS, dysmenorrhea” value (Day 141-168) was −28.373±20.7287 mm, the “change from baseline in mean VAS, dyspareunia” value (Day 141-168) was −4.953±16.9523 mm and the “change from baseline in mean VAS, pelvic pain” value (Day 141-168) was −13.804±12.8288 mm. For the same compound, the “mean VAS score, dysmenorrhea” value (Day 141-168) was 0.000±0.0000 mm, the “mean VAS score, dyspareunia” value (Day 141-168) was 5.565±12.5556 mm and the “mean VAS score, pelvic pain” value (Day 141-168) was 2.167±5.1999 mm. The “change from baseline in EHP-30, Self-image” value (Week 24) was −9.42±15.553, the “change from baseline in EHP-30, control & powerlessness” value (Week 24) was −24.80±23.839 and the “change from baseline in EHP-30, emotional well-being” value (Week 24) was −12.37±18.332. For the same compound, the “change from baseline in EHP-30, pain” value (Week 24) was −26.38±20.341, the “change from baseline in EHP-30, social support” value (Week 24) was −10.46±17.923 and the “change from baseline in mean B&B score, dysmenorrhea” value (Week 24) was −2.1±0.49. For the same compound, the “change from baseline in mean B&B score, dyspareunia” value (Week 24) was −0.5±0.88, the “change from baseline in mean B&B score, induration” value (Week 24) was −0.8±0.82 and the “change from baseline in mean B&B score, pelvic pain” value (Week 24) was −1.2±0.72. For the same compound, the “change from baseline in mean B&B score, pelvic tenderness” value (Week 24) was −1.1±0.78, the “subjects without pain in B&B score, dysmenorrhea” value (Week 24) was 100% and the “subjects without pain in B&B score, dyspareunia” value (Week 24) was 70.6%. For the same compound, the “subjects without pain in B&B score, induration” value (Week 24) was 75.4%, the “subjects without pain in B&B score, pelvic pain” value (Week 24) was 68.9% and the “subjects without pain in B&B score, pelvic tenderness” value (Week 24) was 70.5%. For the same compound, the “change from baseline in maximum M-B&B score, dysmenorrhea” value (end of treatment) was −1.9±0.69, the “change from baseline in maximum M-B&B score, dyspareunia” value (end of treatment) was −0.4±0.78 and the “change from baseline in maximum M-B&B score, pelvic pain” value (end of treatment) was −1.3±0.82. For the same compound, the “change from baseline in maximum VAS, dysmenorrhea” value (end of treatment) was −51.8±27.01 mm, the “change from baseline in maximum VAS, dyspareunia” value (end of treatment) was −10.3±19.76 mm and the “change from baseline in maximum VAS, pelvic pain” value (end of treatment) was −46.8±26.29 mm. For the same compound, the “change from baseline in mean M-B&B score, deep dyspareunia” value (end of treatment) was −0.208±0.5604, the “change from baseline in mean M-B&B score, dysmenorrhea” value (end of treatment) was −1.160±0.4802 and the “change from baseline in mean M-B&B score, pelvic pain” value (end of treatment) was −0.483±0.4860. For the same compound, the “change from baseline in mean VAS, dysmenorrhea” value (end of treatment) was −26.944±19.9212 mm, the “change from baseline in mean VAS, dyspareunia” value (end of treatment) was −4.593±15.0878 mm and the “change from baseline in mean VAS, pelvic pain” value (end of treatment) was −12.552±12.5609 mm. For the same compound, the “change from baseline in mean score of amount of bleeding (0 to 5)” value (end of treatment) was −2.320±0.7281, the “change in proportion of days without pain (M-B&B), deep dyspareunia” value (end of treatment) was 21.76±43.266% and the “change in proportion of days without pain (M-B&B), dysmenorrhea” value (end of treatment) was 80.29±23.327%. The “change in proportion of days without pain (M-B&B), pelvic pain” value (end of treatment) was 33.42±34.007%, the “change in proportion of days without pain (VAS), dysmenorrhea” value (end of treatment) was 82.09±24.051% and the “change in proportion of days without pain (VAS), dyspareunia” value (end of treatment) was 21.76±43.266%. For the same compound, the “change in proportion of days without pain (VAS), pelvic pain” value (end of treatment) was 40.70±33.342%, the “mean VAS score, dysmenorrhea” value (end of treatment) was 0.174±1.1623 mm and the “mean VAS score, dyspareunia” value (end of treatment) was 4.913±10.6249 mm. For the same compound, the “mean VAS score, pelvic pain” value (end of treatment) was 2.629±5.5783 mm, the “subjects who achieved amenorrhea” value (end of treatment) was 97.5% and the “subjects without pain in M-B&B score, dysmenorrhea” value (end of treatment) was 97.5%. For the same compound, the “subjects without pain in M-B&B score, dyspareunia” value (end of treatment) was 56.5%, the “subjects without pain in M-B&B score, pelvic pain” value (end of treatment) was 63.8% and the “subjects without pain in VAS score, dysmenorrhea” value (end of treatment) was 97.5%. For the same compound, the “subjects without pain in VAS score, dyspareunia” value (end of treatment) was 56.5%, the “subjects without pain in VAS score, pelvic pain” value (end of treatment) was 56.8% and the “change from baseline in mean VAS, pelvic pain” value [1] was −12.552 mm. For the same compound, the “subjects without pain in VAS score, pelvic pain” value [1] was 57%.
